In paper PMC6934184, “Selective DNA-PKcs inhibition extends the therapeutic index of localized radiotherapy and chemotherapy” (The Journal of Clinical Investigation, 2019):

Biological target: T1, CDK2/cyclin A1 (Homo sapiens, UniProt P24941)
T1 construct: purchased Thermo Fisher Scientific (Life Technologies) SelectScreen
Experiment: SelectScreen LanthaScreen
Type: binding
Conditions: 1 µM
Method in brief: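 Percent values come from Thermo SelectScreen profiling of NU5455, combining activity and binding assays. CSF1R was run in Z'LYTE format at Km app ATP, and CAMK1 in Adapta format with ATP listed at 10.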

## CN(C(=O)CN1CCOCC1)c1ccc2sc3c(-c4cccc5c(=O)cc(N6CC7CCC(C6)O7)oc45)cccc3c2c1 [NU5455]
  % displacement: -1.6%
